Assay results reported in doi:10.1101/2025.03.27.645620v1 (biorxiv, 2025).
Like-named read-outs stand apart in the source and are kept apart here.

How the values were obtained:
[1] = test system: murine splenocytes; assay: cells; set-up: species or system mouse splenocytes; conditions: Mus musculus, Splenocyte, 24 h
[2] = test system: hSTING-WT; assay: cells; set-up: species or system THP1; conditions: Homo sapiens, THP-1, 20 h, read-out: SB 11285 EC50 (µM)
[3] = test system: hSTING AQ; assay: cells; set-up: species or system THP1; conditions: Homo sapiens, THP-1, 20 h, read-out: SB 11285 EC50 (µM)
[4] = test system: human PBMCs; assay: cells; conditions: PBMC, 24 h
[5] = test system: mSTING; assay: cells; set-up: species or system THP1; conditions: Homo sapiens, THP-1, 20 h, read-out: SB 11285 EC50 (µM)
[6] = target: WT-hSTING-CTT (Homo sapiens, UniProt Q86WV6, H232R); assay: surface plasmon resonance; format: binding; conditions: labelled compound; biotin-tagged SB […] used
Sequence of WT-hSTING-CTT (Q86WV6 139-379 H232R): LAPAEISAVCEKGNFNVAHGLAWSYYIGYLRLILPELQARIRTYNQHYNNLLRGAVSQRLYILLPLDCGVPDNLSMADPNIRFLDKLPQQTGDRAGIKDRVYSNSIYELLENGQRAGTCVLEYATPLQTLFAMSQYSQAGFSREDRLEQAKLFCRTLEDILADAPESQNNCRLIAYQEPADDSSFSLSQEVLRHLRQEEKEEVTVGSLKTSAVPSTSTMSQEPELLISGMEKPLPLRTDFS

Compound: NC1CC2CCC(C1)C2O (mixture of isomers) [SB 11285]
- EC50 ([1]; read-out: SB 11285 EC50 (μM), IFN-α): 0.2 ± 0.1 µM
- EC50 ([1]; read-out: SB 11285 EC50 (μM), IL-18): 0.02 ± 0.02 µM
- EC50 ([1]; read-out: SB 11285 EC50 (μM), IL-31): 0.006 ± 0.003 µM
- EC50 ([1]; read-out: SB 11285 EC50 (μM), IP-10): 0.03 ± 0.02 µM
- EC50 ([1]; read-out: SB 11285 EC50 (μM), TNF-α): 0.04 ± 0.06 µM
- EC50 [2]: 0.008 µM
- EC50 [3]: 0.43 µM
- EC50 ([4]; read-out: SB 11285 EC50(μM), GM-CSF): 0.4 ± 0.3 µM
- EC50 ([4]; read-out: SB 11285 EC50(μM), IFN-α): 0.9 ± 0.7 µM
- EC50 ([4]; read-out: SB 11285 EC50(μM), IFN-β): 0.3 ± 0.2 µM
- EC50 ([4]; read-out: SB 11285 EC50(μM), IFN-γ): 1 ± 0.4 µM
- EC50 ([4]; read-out: SB 11285 EC50(μM), IL-10): 0.03 ± 0.03 µM
- EC50 ([4]; read-out: SB 11285 EC50(μM), IL-12p70): 0.8 ± 0.3 µM
- EC50 ([4]; read-out: SB 11285 EC50(μM), IL-18): 0.7 ± 0.1 µM
- EC50 ([4]; read-out: SB 11285 EC50(μM), MIP-1α): 0.05 ± 0.04 µM
- EC50 ([4]; read-out: SB 11285 EC50(μM), MIP-1β): 0.06 ± 0.09 µM
- EC50 ([4]; read-out: SB 11285 EC50(μM), RANTES): 0.08 ± 0.06 µM
- EC50 [5]: 0.15 µM

Compound: biotin-tagged SB 11285
- Kd [6]: ~0.122 µM

Compound: Nc1ncnc2c1ncn2[C@@H]1O[C@@H]2COP(O)(=S)O[C@@H]3[C@H](O)[C@@H](COP(O)(=S)O[C@H]2[C@H]1O)O[C@H]3n1cnc2c(N)ncnc21 (stereo partly shown) [ADU-S100]
- EC50 ([1]; read-out: EC50 (μM), CXCL1): 1.6 ± 0.9 µM
- EC50 ([1]; read-out: EC50 (μM), IFN-α): > 10 µM
- EC50 ([1]; read-out: EC50 (μM), IL-6): 1.7 ± 1.7 µM
- EC50 ([1]; read-out: EC50 (μM), IL-17A): 0.3 ± 0.2 µM
- EC50 ([1]; read-out: EC50 (μM), IL-18): 0.6 ± 0.4 µM
- EC50 ([1]; read-out: EC50 (μM), MIP-1α): 0.5 ± 0.4 µM
- EC50 ([1]; read-out: EC50 (μM), MIP-1β): 0.7 ± 0.3 µM
- EC50 ([1]; read-out: EC50 (μM), RANTES): 0.1 ± 0.1 µM
- EC50 ([1]; read-out: EC50 (μM), TNF-α): 1.4 ± 0.5 µM
- EC50 ([4]; read-out: EC50(μM), GM-CSF): 2.9 ± 0.4 µM
- EC50 ([4]; read-out: EC50(μM), IFN-α): 2.6 ± 2.9 µM
- EC50 ([4]; read-out: EC50(μM), IFN-β): > 10 µM
- EC50 ([4]; read-out: EC50(μM), IL-6): 2.3 ± 0.6 µM
- EC50 ([4]; read-out: EC50(μM), IL-10): 0.8 ± 0.6 µM
- EC50 ([4]; read-out: EC50(μM), IP-10): 0.4 ± 0.3 µM
- EC50 ([4]; read-out: EC50(μM), MIP-1α): 1.1 ± 0.6 µM
- EC50 ([4]; read-out: EC50(μM), MIP-1β): 1.2 ± 0.8 µM
- EC50 ([4]; read-out: EC50(μM), RANTES): 0.7 ± 0.5 µM
